{"source": "patent US7795235B2", "about": "“Semi-soft c-class immunostimulatory oligonucleotides” (Coley Pharmaceutical GmbH, priority 2004, dated 2010)", "key": {"BALB/c mice [1]": {"system": "BALB/c mice", "assay_type": "in vivo", "conditions": "mouse"}, "BALB/c mice [2]": {"system": "BALB/c mice", "experiment": "Antigen-induced IgE and IgG2a production in the mouse", "assay_type": "in vivo", "conditions": "i.p. 1-1000 μg/kg, serum study day 18, FIG. 19", "protocol": "Methods: Mice (male BALB/c) were sensitized on study days 0 and 7 with antigen (ovalbumin, 10 μg, i.p.) and aluminum hydroxide adjuvant Pierce Alum, i.p.). Mice received SEQ ID NO:2 or SEQ ID NO:7 on study days −2, 0, 5 and 7 (i.e. two days before each sensitization and on the day of sensitization). Mice were bled by cardiac puncture on study day 18. Serum was collected by centrifugation and assayed by ELISA for ovalbumin-specific IgE and IgG2a."}, "human TLR9": {"target": "T1, human TLR9 (Homo sapiens, UniProt Q9NR96)", "T1 construct": "expressed in transfected cells; host or cells: HEK 293", "T1 sequence (Q9NR96 26-1032)": "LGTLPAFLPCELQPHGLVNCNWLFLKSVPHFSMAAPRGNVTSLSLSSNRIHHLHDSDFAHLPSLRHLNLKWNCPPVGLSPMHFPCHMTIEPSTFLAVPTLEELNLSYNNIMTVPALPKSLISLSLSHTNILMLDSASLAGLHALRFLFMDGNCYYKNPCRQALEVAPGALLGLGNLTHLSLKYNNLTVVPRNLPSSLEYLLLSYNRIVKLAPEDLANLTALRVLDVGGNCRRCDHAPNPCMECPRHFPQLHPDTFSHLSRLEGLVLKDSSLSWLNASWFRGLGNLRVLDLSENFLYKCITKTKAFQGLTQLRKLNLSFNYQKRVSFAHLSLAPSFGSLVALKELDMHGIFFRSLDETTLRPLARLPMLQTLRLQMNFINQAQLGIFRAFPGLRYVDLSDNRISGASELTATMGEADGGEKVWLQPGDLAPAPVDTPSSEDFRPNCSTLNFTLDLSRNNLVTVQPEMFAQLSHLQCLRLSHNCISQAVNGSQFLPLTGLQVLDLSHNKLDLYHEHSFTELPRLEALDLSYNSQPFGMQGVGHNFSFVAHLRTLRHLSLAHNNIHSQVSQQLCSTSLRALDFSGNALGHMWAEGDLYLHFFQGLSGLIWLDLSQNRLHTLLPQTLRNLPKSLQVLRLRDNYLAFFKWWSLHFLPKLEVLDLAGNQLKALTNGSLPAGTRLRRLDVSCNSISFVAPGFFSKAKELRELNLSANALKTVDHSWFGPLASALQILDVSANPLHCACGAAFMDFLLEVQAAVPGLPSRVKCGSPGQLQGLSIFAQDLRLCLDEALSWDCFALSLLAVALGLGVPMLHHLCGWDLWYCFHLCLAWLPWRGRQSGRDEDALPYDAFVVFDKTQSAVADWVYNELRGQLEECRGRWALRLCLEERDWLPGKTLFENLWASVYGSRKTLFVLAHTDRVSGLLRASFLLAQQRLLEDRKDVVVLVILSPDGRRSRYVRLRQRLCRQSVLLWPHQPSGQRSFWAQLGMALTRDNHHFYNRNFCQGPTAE", "experiment": "Stimulation of TLR9-transfected cells in vitro (luciferase readout)", "assay_type": "cell-based", "conditions": "quotient between highest value of all concentrations tested and medium control", "protocol": "Methods: HEK 293 cells transfected with human TLR9 were incubated with SEQ ID NO:1, SEQ ID NO:2, SEQ ID NO:3, SEQ ID NO:4, SEQ ID NO:5, or SEQ ID NO:6 for 16 hours. The signal was determined by a luciferase readout.\nThe EC50 was calculated using Sigma Plot (SigmaPlot 2002 for Windows version 8.0). The maximal stimulation index (max SI) was calculated as the quotient between the highest value of all concentrations tested for any ODN and the medium control."}, "guinea pigs": {"system": "guinea pigs", "experiment": "Guinea pig AHR protocol (airway resistance and lung compliance)", "assay_type": "in vivo", "conditions": "guinea pigs, 10, 30, 100 or 300 μl/kg, i.t.", "protocol": "Male guinea pigs were sensitized on study days 0 and 4 with antigen (ovalbumin, 0.5 ml, 1% OVA i.p./s.c.) with aluminum hydroxide adjuvant. Guinea pigs were antigen challenged by exposure to inhaled ovalbumin aerosol, twice each week for two consecutive weeks. The first challenge was on study day 13. CpG ODN or vehicle (saline, 20 μl) were administered intranasally once each week, two days before the first antigen challenge of the week. Airways hyperreactivity was assessed 24 hours after the last antigen challenge by measuring bronchoconstriction (increase in airway resistance) to intravenous methacholine. For each animal, a dose-response curve to methacholine was obtained, and airway reactivity was quantified as the area under the curve.\nMethod: Guinea pigs were sensitized as described in Example 10. The first challenge was on study day 13. Guinea pigs were given intranasally either carrier (saline), OVA alone, of concentrations of SEQ ID NO:7 of 10 μl/kg, 30 μl/kg, 100 μl/kg, or 300 μl/kg, i.t.\nMethod: Guinea pigs were sensitized as described in Example 10. The first challenge was on study day 13. Guinea pigs were given intranasally either carrier (saline), OVA alone, of concentrations of SEQ ID NO:2 of 10 μl/kg, 30 μl/kg, 100 μl/kg, or 300 μl/kg, i.t."}, "mouse splenocytes": {"system": "mouse splenocytes", "experiment": "Cytokine secretion from mouse splenocytes by SEQ ID NO: 2 and fragments", "assay_type": "cell-based", "conditions": "0.01-10 μg/ml, 36 hours, FIGS. 43-45", "protocol": "Spleens were removed from 6 mice (male, BALB/c). The splenocytes from each spleen were separated by pushing gently through a cell sieve (70 μm pore size), and were then pooled. Splenocytes were added to wells of culture plates. 1×10^7 cells in a volume of 900 μl medium were added to each well. Medium was RPMI 1640 containing 10% fetal bovine serum. 100 μl aliquots of CpG ODN solutions in medium were added to each well to give final concentrations in the wells of 0.01-10 μg/ml. After incubation for 36 hours (37 C, 5% CO2 incubator), culture supernatants were collected and assayed for cytokine concentrations using either the Luminex multiplex assay (IFNγ, IP-10, IL-10, IL-6, TNFα) or ELISA (IFNα).\nThe aim of this study was to investigate the biological activity of selected fragments (putative metabolites) of SEQ ID NO: 2. Activity was determined by measuring the ability of each fragment to induce secretion of TLR9-associated cytokines from mouse splenocytes […].\nStimulation of cytokine secretion by fragments of SEQ ID NO.: 2 is shown in the attached FIGS. 43-45. The oligonucleotides examined are depicted in the Figures by SEQ ID NO and include SEQ ID NO: 15-23. The concentration of oligonucleotide used to produce a particular data point is depicted along the X-axis (μg/ml)."}, "[3]": {"conditions": "100 μg/kg intranasal, both virus-infected and antigen-challenged"}}, "note": "Oligonucleotides are written 5' to 3', each unit as a sugar letter and its base; * is a phosphorothioate linkage, no mark a phosphodiester; rarer units and linkages stand in square brackets, end groups in braces. Plain capitals give the bases only. d = 2'-deoxy (DNA)"}
{"substance": "T*C_G*T*C_G*T*C_G*T*T*C_G*G*C*G*C_G*C*G*C*C*G (DNA dT*dCdG*dT*dCdG*dT*dCdG*dT*dT*dCdG*dG*dC*dG*dCdG*dC*dG*dC*dC*dG) [SEQ ID NO: 2, Semi-soft class C CpG ODN]", "values": [{"measurement": "antigen-induced eosinophilia", "setting": "BALB/c mice [1]; 100 μg/kg intranasal, antigen challenge alone, FIG. 20", "result": "significantly suppress"}, {"measurement": "exacerbated accumulations of neutrophils and mononuclear cells", "setting": "BALB/c mice [1]; [3]", "result": "both suppressed"}, {"measurement": "exacerbated airways inflammation", "setting": "BALB/c mice [1]; [3]", "result": "significantly suppressed"}, {"measurement": "virus-induced neutrophilia", "setting": "BALB/c mice [1]; 100 μg/kg intranasal, virus infection alone, FIG. 20", "result": "did not suppress"}, {"measurement": "loss of body weight", "setting": "BALB/c mice [1]; both virus-infected and antigen-challenged", "result": "significantly suppressed"}, {"measurement": "production of antigen (ovalbumin)-specific IgE", "setting": "BALB/c mice [2]", "result": "suppressed"}, {"measurement": "production of antigen (ovalbumin)-specific IgG2a", "setting": "BALB/c mice [2]", "result": "potentiated"}, {"measurement": "max SI (maximal stimulation index)", "setting": "human TLR9", "result": 20}, {"measurement": "AUC-resistance (airway reactivity, area under the dose-response curve)", "setting": "guinea pigs", "result": "dose-dependent reduction"}, {"measurement": "induction of TLR9-associated cytokines IFNα, IFNγ, IP-0, IL-6, IL-10 and TNFα", "setting": "mouse splenocytes", "result": "induced"}]}
